This passage reports EC50 and AC50 results from ChEMBL document CHEMBL1201862, “PubChem BioAssay data set” (2004).

The nature of test [1]: cytotoxicity toward NIH3T3 fibroblasts, dose response, counter-screen, cell-based, ATP luminescence, mouse fibroblasts (AID 2010).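 Further: cells exposed to compound for about 90 hours before reading.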 Type of test: functional.
The nature of test [2]: inhibitors of intracellular T. cruzi replication, confirmation, NIH3T3 host cells, beta-gal luminescence (AID 2044).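 Further: intracellular parasites grown in NIH/3T3 mouse fibroblasts as host cells; luminescent beta-galactosidase reporter signal from transgenic T. cruzi replicating inside host cells; inhibitors lower the luminescence signal.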 Type of test: functional, cell-based.
In test [3] the target is T1, Heat shock factor protein 1 (Mus musculus, UniProt P38532).
T1 sequence (P38532 whole entry): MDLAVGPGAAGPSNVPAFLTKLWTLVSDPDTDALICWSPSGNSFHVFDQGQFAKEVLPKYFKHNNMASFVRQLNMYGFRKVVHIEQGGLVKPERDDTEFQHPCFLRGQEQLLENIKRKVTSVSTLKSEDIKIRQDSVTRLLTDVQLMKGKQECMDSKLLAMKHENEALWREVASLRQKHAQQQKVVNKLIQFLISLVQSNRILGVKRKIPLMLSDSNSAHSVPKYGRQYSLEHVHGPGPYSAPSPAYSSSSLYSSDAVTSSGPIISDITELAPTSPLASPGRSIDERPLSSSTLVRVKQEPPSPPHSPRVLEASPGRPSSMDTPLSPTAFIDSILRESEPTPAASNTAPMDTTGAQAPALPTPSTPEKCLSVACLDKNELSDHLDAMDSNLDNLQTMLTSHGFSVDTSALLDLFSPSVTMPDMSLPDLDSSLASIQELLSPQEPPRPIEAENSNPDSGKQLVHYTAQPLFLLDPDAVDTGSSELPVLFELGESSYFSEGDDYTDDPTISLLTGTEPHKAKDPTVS
The experiment in a line: inhibition of MG132-induced HSE-luciferase signal, confirmation, cell-based, NIH3T3, luminescence, dose retest (AID 2382).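 Further: NIH3T3 fibroblasts with HSF1-driven luciferase reporter stressed by proteasome inhibitor MG132; luminescence from HSF1-driven luciferase expression after 8 hours of MG132 stress.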 Type of test: functional.

Test [4] has as its target T1, Heat shock factor protein 1. Put plainly: HSF1 potentiators in luciferase reporter cells, confirmation, cell-based, NIH3T3, luminescence, dose retest (AID 435004).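 Further: stress induced by proteasome inhibitor MG132 added 30 min after compound; luciferase reporter driven by HSF1 response element in NIH3T3 cells; actives raise luminescence as potentiators of the MG132 stress response.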 It counts as functional. On the technique in general: A reporter such as luciferase makes a cellular process visible.
In test [5] the target is Cytochrome P450 2D6 (Homo sapiens, UniProt P10635).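 Further: CYP2D6 member of a cytochrome P450 panel assay.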
Test [6] concerns the target T2, Corticotropin-releasing factor receptor 2/Corticotropin-releasing factor-binding protein (Homo sapiens, UniProt P24387+Q13324).
T2 sequence (Q13324 whole entry): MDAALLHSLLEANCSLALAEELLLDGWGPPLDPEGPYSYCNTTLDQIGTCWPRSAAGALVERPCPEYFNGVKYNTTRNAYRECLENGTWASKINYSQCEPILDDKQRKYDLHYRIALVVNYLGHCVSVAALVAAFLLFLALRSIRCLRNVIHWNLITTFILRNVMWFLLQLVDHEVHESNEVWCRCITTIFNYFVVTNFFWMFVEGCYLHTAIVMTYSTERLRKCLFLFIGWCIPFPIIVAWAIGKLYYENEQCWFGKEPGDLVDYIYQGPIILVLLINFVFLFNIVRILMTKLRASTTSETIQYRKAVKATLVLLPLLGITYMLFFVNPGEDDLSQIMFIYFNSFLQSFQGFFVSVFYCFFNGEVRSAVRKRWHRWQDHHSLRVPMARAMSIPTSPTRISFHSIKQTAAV
T2 sequence (P24387 whole entry): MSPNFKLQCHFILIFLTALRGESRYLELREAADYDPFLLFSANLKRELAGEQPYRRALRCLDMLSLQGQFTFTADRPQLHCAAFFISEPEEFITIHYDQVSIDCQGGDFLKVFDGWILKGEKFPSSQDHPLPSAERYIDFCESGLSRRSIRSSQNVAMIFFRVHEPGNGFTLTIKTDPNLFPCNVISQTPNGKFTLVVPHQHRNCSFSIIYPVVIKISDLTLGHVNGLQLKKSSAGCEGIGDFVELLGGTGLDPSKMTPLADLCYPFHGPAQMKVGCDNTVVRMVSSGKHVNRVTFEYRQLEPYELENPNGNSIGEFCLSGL
Put plainly: activators of CRF receptor 2 with binding protein – uHTS hits, confirmation (AID 602473). Type of test: functional. Particulars: read-out: EC50_Mean.

The subject of test [7] is Streptococcus. Put plainly: Group A Streptococcus viability loss, dose response, counter-screen for streptokinase expression inhibitor project, luminescence, BacTiterGlo (AID 1915).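 Further: potency for reduction of bacterial viability or growth.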 Type of test: functional, organism-based.
For test [8], the system named is Streptococcus sp. 'group A'. The experiment in a line: growth inhibition of control SK(-) GAS strain, dose response, counter-screen for streptokinase expression inhibitor project, luminescence, kanamycin, BacTiterGlo, confirmation (AID 1900). It counts as functional, organism-based.

The structures appear in SMILES notation. Activity calls are given as the source filed them. For most assays here, no stated cut-off is given here; in the data, actives have a measured EC50 and inactives only a lower limit. Where only a bound is given, the exact number is not on record here.

Chain of Cytochrome P450 2D6 (P10635 whole entry): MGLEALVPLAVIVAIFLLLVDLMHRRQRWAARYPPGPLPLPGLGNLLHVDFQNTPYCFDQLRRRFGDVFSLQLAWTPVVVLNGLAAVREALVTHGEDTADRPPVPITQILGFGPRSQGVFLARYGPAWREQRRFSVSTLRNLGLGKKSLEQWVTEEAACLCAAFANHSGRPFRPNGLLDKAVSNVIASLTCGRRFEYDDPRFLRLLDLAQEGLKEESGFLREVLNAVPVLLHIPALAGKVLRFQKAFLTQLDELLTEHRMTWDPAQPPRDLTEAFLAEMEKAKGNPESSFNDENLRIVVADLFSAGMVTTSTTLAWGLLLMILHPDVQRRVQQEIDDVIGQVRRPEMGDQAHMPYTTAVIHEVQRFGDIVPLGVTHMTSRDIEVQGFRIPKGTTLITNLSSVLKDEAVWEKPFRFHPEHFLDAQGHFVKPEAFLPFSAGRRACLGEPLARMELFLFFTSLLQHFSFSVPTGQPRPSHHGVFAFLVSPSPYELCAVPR

Consider `COC(=O)CNC(c1ccccc1)c1cc(Br)ccc1NC(=O)CCN1CCOCC1` (configuration not stated), for which the values for the EC50 in test [1] and in test [2] were > 60 µM (not active) and 6.7 µM (active), respectively. Take `O=[N+]([O-])c1ccc(Nc2ccc(F)cc2)cc1`: the EC50 in test [3] was > 195 µM (not active). Turning to `CCN(C(=O)c1cc2c(O)nc3ccc(C)cc3c2s1)c1ccccc1F`, the EC50 in test [4] is > 260 µM (inactive). `c1cn(-c2ncnc3ccc(-c4ccoc4)cc23)cn1`: the AC50 (usually the concentration at which the activity in the assay is half-maximal) in test [5] was 39.8 µM (inconclusive). For `CS/C(=N\C#N)N1CCN(c2ccc(Cl)cc2)CC1`, the EC50 in test [4] was 129 µM (active). Turning to `Cc1cccc(C(=O)NNC(=O)CCn2nnc3ccccc32)c1`, the EC50 in test [4] is > 260 µM (inactive). With `Cc1ccc(C(NC(=O)/C=C\c2ccc3c(c2)OCO3)C(=O)Nc2ccc3c(c2)OCO3)cc1` (configuration not stated), the EC50 in test [4] is > 260 µM (inactive). The same measure, in the same setting: with `Cc1ccnc(NC(=O)c2cc3cc(F)ccc3s2)c1` the figure was > 260 µM (inactive). On to `CCOC(=O)NNc1nncc2ccccc12` [TODRALAZINE], for which the AC50 in test [5] is 12.6 µM (inconclusive). The same measure, in the same setting: with `COc1ccc(CNc2ncnc3ccc(-c4cccc(NS(C)(=O)=O)c4)cc23)c(OC)c1` the figure was 10 µM (inconclusive). Still for that read-out and setting: the figure for `CCn1c(N)nc2ccccc21` is 17.8 µM (inconclusive). For the compound `Cc1ccc(C(=O)Cn2nnc(-c3ccccc3-n3cnnn3)n2)cc1`, in test [4], the EC50 was > 260 µM (inactive). `COc1ccccc1C(=O)C1CCCN(Cc2c[nH]nc2C2CCCCC2)C1` (configuration not stated): the EC50 in test [1] was > 60 µM (not active); in test [2] it was 0.604 µM (active). `O=S(=O)(NC1CCCCC1N1CCN(c2ccc(F)cc2)CC1)c1ccc(Cl)cc1` (configuration not stated): the EC50 in test [6] is 3.94 µM (active). For the compound `COc1ccc(-c2nc(C#N)c(NCc3cccnc3)o2)cc1OC`, the results for the EC50 in test [1] and in test [2] were > 60 µM (not active) and 1.8 µM (active), respectively. As for `Cc1ccc(-n2nc(C)c3cc(C(=O)O)sc32)cc1`, the EC50 in test [3] was > 195 µM (not active). With `COc1ccc(OC)c(Nc2nc3ccc(C)cc3n3cnnc23)c1`, the EC50 in test [4] was > 260 µM (inactive). As to `CCCCOc1ccc(CSC2=NCCN2)cc1[N+](=O)[O-]`, the EC50 in test [1] was > 30 µM (not active); in test [2], 0.46 µM (active).

As to `Cc1ccc(OCC(=O)c2cc(C)n(-c3ccccc3)c2C)c([N+](=O)[O-])n1`, the EC50 in test [3] was 0.623 µM (active). Turning to `C/C(=N\NC(=O)C(N)=O)c1ccc(O)cc1O`, the EC50 in test [3] is reported as > 195 µM (not active). Regarding `O=C(Nc1cccc(S(=O)(=O)N2CCOCC2)c1)c1cn(-c2ccccc2)nc1-c1ccc(F)cc1`, the EC50 in test [1] was > 60 µM (inconclusive); in test [2] it was 2.49 µM (active). As for `CCC12CN3CC(CC)(CN(C1)C3c1ccc([N+](=O)[O-])o1)C2=O` (configuration not stated), the EC50 in test [1] is > 30 µM (not active); in test [2], 0.85 µM (active).

As for `CCOc1ccc(/C=C2\SC(=O)N(CCNC(=O)C3COc4ccccc4O3)C2=O)cc1OC` (configuration not stated), the EC50 in test [3] is on record as > 195 µM (not active).

Regarding `C/C(CC(=O)Nc1cccc2c1CCCC2)=N\NC(=O)COc1ccccc1`, in test [4], the EC50 is > 260 µM (inactive).

With `Cc1ccc(C(=O)NCCc2nc3ccccc3[nH]2)cc1[N+](=O)[O-]`, the values for the EC50 in test [1] and in test [2] were > 60 µM (inconclusive) and 1.03 µM (active), respectively.

Consider `O=[N+]([O-])c1cc(Br)c(OCc2nnc(-c3ccccc3)o2)c(Br)c1`, for which the values for the EC50 in test [1] and in test [2] were > 60 µM (not active) and 1.75 µM (active), respectively. For the compound `CN(C)S(=O)(=O)N1CCN(C(=O)N2CCCCC2)CC1`, in test [3], the EC50 is reported as > 195 µM (not active). Still for that read-out and setting: with `CCOc1cc(CNCC2CCCN2CC)cc(Cl)c1OC` (configuration not stated) the figure was 63.1 µM (active); with `O=C(Cc1ccccc1)Oc1ccccc1N1C(=O)CCC1=O`, > 195 µM (not active). For `CCOC(=O)c1c(NC(C)=O)sc2c(OCCN(CC)CC)c(Br)ccc12`, the figures for the EC50 in test [1] and in test [2] were > 60 µM (not active) and 1.58 µM (active), respectively. For `O=C(c1ccc(-n2cncn2)c([N+](=O)[O-])c1)N1CCN(S(=O)(=O)c2ccccc2F)CC1`, in test [3], the EC50 is > 195 µM (not active). `CCN(CC)c1ccc(/C=C2/C(=O)N(c3ccc([N+](=O)[O-])cc3)N=C2N2CCOCC2)cc1`: the EC50 in test [4] is > 260 µM (inactive). For the compound `CCOC(=O)N1CCN(c2nc(-c3ccco3)cc(C(F)(F)F)n2)CC1`, the AC50 in test [5] is 14.1 µM (inconclusive). For `COc1cc(OC)cc(C(=O)Nc2nc(-c3ccccc3)c(-c3ccccc3)o2)c1`, the EC50 is 1.34 µM (active) in test [7] and 0.617 µM (active) in test [8].

For `Cc1ccc(-n2nc3c(=O)n(CCCC(=O)N4CCC(C(N)=O)CC4)nc(C)c3c2C)cc1`, the EC50 in test [3] was > 195 µM (not active). For the compound `CCOc1ccc(NS(=O)(=O)c2ccc(C(=O)NCC(c3ccco3)N3CCCC3)cc2)cc1` (configuration not stated), in test [6], the EC50 was 6.17 µM (active).

In the case of `O=C(NCc1ccccn1)c1cc(-c2ccc(-c3ccccc3)cc2)nc2ccccc12`, in test [4], the EC50 is 0.461 µM (active).

Take `CC(/C=N\NC(=O)c1cc(C)oc1C)=C\c1ccccc1`: the EC50 in test [3] is > 195 µM (not active). On to `CCc1cccc(NC(=O)C2CCCN(S(=O)(=O)c3cccs3)C2)c1` (configuration not stated), for which the EC50 in test [3] is > 195 µM (not active). For the compound `COc1ccc(/C=C(\C#N)C(=O)Nc2cccc(C)n2)cc1`, the EC50 in test [4] was 165 µM (active). Consider `COc1ccc(C(=O)C2=C(O)C(=O)N(CCN(C)C)C2c2cccnc2)cc1C` (configuration not stated), for which, in test [6], the EC50 was > 53 µM (inactive). `O=C(COC(=O)COc1cccc(Br)c1)Nc1c(Cl)cccc1Cl`: in test [4], the EC50 was > 260 µM (inactive). As for `COCc1cc(CN2CCN(CCc3ccccc3)C(CCO)C2)ccc1OC` (configuration not stated), in test [4], the EC50 was > 260 µM (inactive). For the compound `CCN=C(S)NNC(=O)c1cccn(Cc2ccc(Cl)cc2Cl)c1=O`, the EC50 in test [6] was 7.26 µM (active). With `CCCC(=O)NCCc1c2n(c3ccc(OC)cc13)Cc1ccccc1-2`, the AC50 in test [5] was 39.8 µM (inconclusive). On to `O=C(NCC1CCCN(Cc2ccc3nonc3c2)C1)c1cccc(C(F)(F)F)c1` (configuration not stated), for which the EC50 is > 60 µM (not active) in test [1] and 0.771 µM (active) in test [2]. Taken in the same sequence, the figures for `O=C(N/N=C/c1ccc(-c2ccc(Br)cc2)o1)c1ccc2c(c1)OCO2` were > 60 µM (inconclusive) and 1.47 µM (active). Turning to `Cc1c(Cl)cccc1NC(=O)Nc1cnccn1`, in test [3], the EC50 is > 195 µM (not active). As to `O=C1CC(c2ccc(Cl)cc2)n2nc(NS(=O)(=O)c3ccc(F)cc3)nc2N1` (configuration not stated), in test [4], the EC50 was > 260 µM (inactive). On to `COCCN(Cc1c[nH]nc1-c1ccc2cc(OC)ccc2c1)C(C)C`, for which the EC50 in test [1] is > 60 µM (not active); in test [2], 1.56 µM (active). `Cn1c(N)c(C(=O)Nc2ccc(-c3ccccc3)cc2)sc1=S`: the EC50 in test [3] is > 195 µM (not active). Consider `O=C(NCCc1nc2ccccc2[nH]1)/C(=C/c1ccc(F)cc1)NC(=O)c1ccco1`, for which the EC50 in test [4] is > 260 µM (inactive). On to `CCn1c2ccccc2c2cc(NS(=O)(=O)c3ccccc3C)ccc21`, for which the half-maximal activity concentration (AC50) in test [5] is 8.91 µM (inconclusive). Turning to `Cc1cc(Cn2ccnc2)c(C)cc1Cn1ccnc1`, the EC50 was > 60 µM (not active) in test [1] and 2.45 µM (active) in test [2].

For the compound `CN(C)C(CNC(=O)CCC(=O)c1ccc(Br)cc1)c1ccccc1` (configuration not stated), in test [4], the EC50 was > 260 µM (inactive). For `C=CCC(C(=O)OC)(C(=O)OC)c1ccc([N+](=O)[O-])cc1[N+](=O)[O-]`, the figures for the EC50 in test [1] and in test [2] were > 60 µM (not active) and 2.42 µM (active), respectively.

As for `Cc1nc2c(cc1C(=O)N/N=C/c1ccc(O)c(O)c1)c(=O)n(C)c(=O)n2C`, the EC50 in test [3] was > 195 µM (not active).
